Source: US7084127B2, “C2,5′-disubstituted and N6, C2,5′-trisubstituted adenosine derivatives and their different uses” (Universiteit Leiden, priority 2001, dated 2006)
Like-named read-outs stand apart in the source and are kept apart here.

Key:
[1] = molecular target: T1, A2A receptor in rat striatum (Rattus norvegicus, UniProt P30543); assay: Radioligand binding, displacement of [3H]ZM241385 from rat striatal membranes;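 also: displacement assays run in the absence of GTP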
T1 construct: the A2A receptor in rat striatum; from tissue; host or cells: rat striatum
Description: (§1) Incubations were carried out for 1 hr at 37° C. and were terminated by rapid filtration over Whatman GF/B filters, using a Brandell cell harvester (Brandell, Gaithersburg, Md.). Tubes were washed three times with 3 ml of buffer. Radioactivity was determined in a Beckman 5500B γ-counter. Nonspecific binding was determined in the presence of 10^−5 M R-PIA.
(§2) All compounds were tested in radioligand binding assays to determine their affinities for the adenosine A1 receptor in rat brain cortex, the A2A receptor in rat striatum and the human A3 receptor as expressed in HEK 293 cells (Table 2). […] AB-MECA, an A3 receptor agonist, was also used. Displacement experiments were performed in the absence of GTP.

[2] = molecular target: T2, human adenosine A1 receptors expressed in CHO cells (Homo sapiens, UniProt P30542); assay: cAMP assay A1 (inhibition of forskolin-induced cAMP production); assay type: cell-based; settings: for % inhib. A1 of forskolin-induced cAMP: compared to reference full agonist CPA (10 μM) in A1 CHO cells, tested at ±100 × Ki, ±SEM, n = 3, forskolin 10 μM
T2 construct: expressed in transfected cells; host or cells: CHO cells
T2 sequence (P30542 1-326): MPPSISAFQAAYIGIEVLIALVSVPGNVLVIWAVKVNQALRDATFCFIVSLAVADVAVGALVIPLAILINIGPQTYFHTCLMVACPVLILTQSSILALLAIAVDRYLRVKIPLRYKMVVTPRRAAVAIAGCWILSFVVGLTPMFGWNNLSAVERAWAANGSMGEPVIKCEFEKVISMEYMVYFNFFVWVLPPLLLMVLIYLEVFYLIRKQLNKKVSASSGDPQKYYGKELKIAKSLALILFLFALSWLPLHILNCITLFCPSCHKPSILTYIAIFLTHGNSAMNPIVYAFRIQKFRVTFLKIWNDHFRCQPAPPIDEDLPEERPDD
Description: cAMP assay A1 and A3 CHO cells expressing either the human adenosine A1 or A3 receptor were grown overnight as a monolayer in 24 wells tissue culture plates (400 μl/well; 2×10^5cells/well). cAMP generation was performed in Dulbecco's Modified Eagles Medium (DMEM)/N-2-hydroxyethylpiperazin-N′-2-ethansulfonic acid (HEPES) buffer (0.60 g HEPES/50 ml DMEM pH 7.4). […] After incubation for 40 minutes at 37° C., 100 μl forskolin (final concentration 10 μM) was added. After 15 minutes at 37° C., the reaction was terminated by removing the medium and adding 200 μL 0.1 M HCl. Wells were stored at −20° C. until assay
The amounts of cAMP were determined after a protocol with cAMP binding protein^28 with the following minor modifications. As a buffer was used 150 mM K2HPO4/10 mM EDTA/0.2% Bovine Serum Albumine (BSA) at pH 7.5. Samples (20 μl+30 μl 0.1 M HCl) were incubated for at least 2.5 hours at 0° C. before filtration over Whatman GF/B filters. Filters were additionally rinsed with 2×2 ml TrisHCl buffer (pH 7.4, 4° C.). Filters were counted in Packard Emulsifier Safe scintillation fluid (3.5 ml) after 24 hours of extraction. […]

[3] = molecular target: T3, human A3 receptor as expressed in HEK 293 cells (Homo sapiens, UniProt P0DMS8); assay: Radioligand binding, displacement of [125I]AB MECA, HEK 293 cell membranes
T3 construct: expressed in transfected cells; host or cells: HEK 293 cells (membrane suspension)
T3 sequence (P0DMS8 1-318): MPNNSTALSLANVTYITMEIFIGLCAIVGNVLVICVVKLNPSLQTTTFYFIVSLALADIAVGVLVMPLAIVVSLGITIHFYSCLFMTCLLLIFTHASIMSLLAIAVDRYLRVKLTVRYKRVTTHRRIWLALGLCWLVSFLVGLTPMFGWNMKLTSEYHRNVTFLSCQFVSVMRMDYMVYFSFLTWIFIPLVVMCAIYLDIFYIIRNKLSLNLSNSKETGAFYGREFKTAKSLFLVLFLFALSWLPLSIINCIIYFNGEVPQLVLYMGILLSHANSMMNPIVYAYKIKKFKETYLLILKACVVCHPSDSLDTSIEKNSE
Description: as §1, §2

[4] = molecular target: T4, human adenosine A2A receptors expressed in CHO cells (Homo sapiens, UniProt P29274); assay: cAMP assay A2A (stimulation of cAMP production); assay type: cell-based
T4 construct: expressed in transfected cells; host or cells: CHO cells
Description: cAMP assay A2A CHO cells expressing human adenosine A2A receptors were grown overnight as a monolayer in 24 wells tissue culture plates (400 μL/well; 2×10^5 cells/well). cAMP generation was performed in Dulbecco's Modified Eagles Medium (DMEM)/N-2-hydroxyethylpiperazin-N′-2-ethanesulfonic acid (HEPES) buffer (0.60 g HEPES/50 mL DMEM pH 7.4). To each well, washed three times with DMEM/HEPES buffer (250 μλ), 100 μl DMEM/HEPES buffer, 100 μl adenosine deaminase (final concentration 5 IU/ml) and 100 μl of a mixture of rolipram and cilostamide (final concentration 50 μM each) were added. After incubation for 40 minutes at 37° C., 100 μl agonist was added. […] After 15 minutes at 37° C., the reaction was terminated by removing the medium and adding 200 μl 0.1 M HCl. Wells were stored at −20° C. until assay.
The amounts of cAMP were determined after a protocol with cAMP binding protein^36 with the following minor modifications. As a buffer was used 150 mM K2HPO4/10 mM EDTA/0.2% Bovine Serum Albumine (BSA) at pH 7.5. Samples (20 μl+30 μl 0.1 M HCl) were incubated for at least 2.5 hours at 0° C. before filtration over Whatman GF/B filters. […] Filters were counted in Packard Emulsifier Safe scintillation fluid (3.5 ml) after 24 hours of extraction.
Data Analysis Apparent Ki and EC50 values were computed from the displacement curves by non-linear regression of the competition curves with the software package Prism (Graph Pad, San Diego, Calif.)

[5] = molecular target: T5, adenosine A1 receptor in rat brain cortex (Rattus norvegicus, UniProt P25099); assay: Radioligand binding, displacement of [3H]DPCPX from rat cortical membranes; settings: ligand 10^−5 M
T5 construct: the adenosine A1 receptor in rat brain cortex; from tissue; host or cells: rat brain cortex
T5 sequence (P25099 1-326): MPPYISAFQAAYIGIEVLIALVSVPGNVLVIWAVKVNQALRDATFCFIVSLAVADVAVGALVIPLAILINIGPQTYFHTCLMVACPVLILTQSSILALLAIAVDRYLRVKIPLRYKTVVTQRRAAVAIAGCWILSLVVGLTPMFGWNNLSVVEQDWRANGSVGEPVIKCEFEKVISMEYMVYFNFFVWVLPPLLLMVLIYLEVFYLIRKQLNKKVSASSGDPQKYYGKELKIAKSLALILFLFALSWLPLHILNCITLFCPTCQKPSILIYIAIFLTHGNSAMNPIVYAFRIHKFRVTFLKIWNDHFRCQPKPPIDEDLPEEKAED
Description: as §1, §2

[6] = molecular target: T6, human adenosine A3 receptor (Homo sapiens, UniProt P0DMS8); assay: cAMP assay A3 (inhibition of forskolin-induced cAMP production); assay type: cell-based
T6 construct: expressed in transfected cells; HEK 293 cells according to b145 and b219
T6 sequence (P0DMS8 1-318): T3 sequence (P0DMS8 1-318)
Description: cAMP assay A3 CHO cells expressing the human adenosine A3 receptor were grown overnight as a monolayer in 24 wells tissue culture plates (400 μl/well; 2×10^5 cells/well). cAMP generation was performed in Dulbecco's Modified Eagles Medium (DMEM)/N-2-hydroxyethylpiperazin-N′-2-ethansulfonic acid (HEPES) buffer (0.60 g HEPES/50 ml DMEM pH 7.4). […] After incubation for 40 minutes at 37° C., 100 μl forskolin (final concentration 10 μM) was added. After 15 minutes at 37° C., the reaction was terminated by removing the medium and adding 200 μl 0.1 M HCl. Wells were stored at −20° C. until assay. The amounts of cAMP were determined after a protocol with cAMP binding protein^36 with the following minor modifications. As a buffer was used 150 mM K2HPO4/10 mM EDTA/0.2% Bovine Serum Albumine (BSA) at pH 7.5. Samples (20 μl+30 μl 0.1 M HCl) were incubated for at least 2.5 hours at 0° C. before filtration over Whatman GF/B filters. […] Filters were counted in Packard Emulsifier Safe scintillation fluid (3.5 ml) after 24 hours of extraction.
All compounds were also tested in functional assays.
The ability of the compounds to inhibit forskolin-stimulated (10 μM) cAMP production via the adenosine A3 receptor was also studied.
The amounts of cAMP were determined after a protocol with cAMP binding protein^28 with the following minor modifications. As a buffer was used 150 mM K2HPO4/10 mM EDTA/0.2% Bovine Serum Albumine (BSA) at pH 7.5. Samples (20 μl+30 μl 0.1 M HCl) were incubated for at least 2.5 hours at 0° C. before filtration over Whatman GF/B filters. […] Filters were counted in Packard Emulsifier Safe scintillation fluid (3.5 ml) after 24 hours of extraction.

[7] = [3H]ZM241385, rat striatal membranes
[8] = [3H]ZM241385, rat striatal membranes, ligand 10^−5 M
[9] = cAMP production, human A2A in CHO cells
[10] = compared to full agonist CGS 21680

T4 sequence (P29274 whole entry): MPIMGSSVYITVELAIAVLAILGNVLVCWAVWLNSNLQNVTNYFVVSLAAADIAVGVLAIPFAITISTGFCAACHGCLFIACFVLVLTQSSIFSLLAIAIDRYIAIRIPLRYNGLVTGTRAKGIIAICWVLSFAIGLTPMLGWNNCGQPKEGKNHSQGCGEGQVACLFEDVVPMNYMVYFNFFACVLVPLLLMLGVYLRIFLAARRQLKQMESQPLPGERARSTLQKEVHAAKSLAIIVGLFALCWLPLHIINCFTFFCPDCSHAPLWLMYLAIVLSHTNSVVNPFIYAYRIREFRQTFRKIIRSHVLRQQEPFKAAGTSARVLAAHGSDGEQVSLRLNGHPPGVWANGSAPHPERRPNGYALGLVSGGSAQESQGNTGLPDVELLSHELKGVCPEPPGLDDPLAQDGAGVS
T1 sequence (P30543 whole entry): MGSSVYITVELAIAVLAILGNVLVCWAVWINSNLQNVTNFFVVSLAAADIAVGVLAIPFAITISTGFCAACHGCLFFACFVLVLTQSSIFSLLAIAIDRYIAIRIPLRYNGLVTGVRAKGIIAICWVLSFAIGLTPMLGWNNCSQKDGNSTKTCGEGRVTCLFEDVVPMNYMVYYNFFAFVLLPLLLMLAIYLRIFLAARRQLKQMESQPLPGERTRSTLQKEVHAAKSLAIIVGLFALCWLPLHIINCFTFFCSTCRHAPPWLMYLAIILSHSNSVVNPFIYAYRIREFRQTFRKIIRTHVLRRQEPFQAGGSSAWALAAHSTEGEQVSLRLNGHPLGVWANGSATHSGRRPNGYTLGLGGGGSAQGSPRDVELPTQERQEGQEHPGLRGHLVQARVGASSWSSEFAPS

5′-Deoxy-2-iodo-5′-methylthioadenosine [Compound 33]
Ki [1, 7]: 3900 ± 580 nM

OC[C@H]1O[C@@H](n2cnc3c(NC4CCCC4)nc(Cl)nc32)[C@H](O)[C@@H]1O [2-Cl-CPA, reference compound]
% displacement at 10^−5 M A2A [1, 8]: 53.1%

OC[C@H]1O[C@@H](n2cnc3c(NC4CCCC4)ncnc32)[C@H](O)[C@@H]1O [CPA, reference compound]
% displacement at 10^−5 M A2A [1]: 45.9%
inhibition at 10 µM ([2]; CHO, read-out: % inhib. A1 of forskolin-induced cAMP): 69 ± 3%
Ki ([3]; [125I]AB MECA, human A3 receptor in HEK 293 cells, read-out: Ki A3): 281 ± 56 nM

CNC(=O)[C@H]1O[C@@H](n2cnc3c(NCc4cccc(I)c4)nc(Cl)nc32)[C@H](O)[C@@H]1O [Cl-IB-MECA, reference compound]
% displacement at 10^−5 M A2A [1, 8]: 23.5%

Nc1nc(I)nc2c1ncn2[C@@H]1O[C@H](CO)[C@@H](O)[C@H]1O [Compound 1, 2-Iodoadenosine]
Emax ([4]; CHO, read-out: Emax (%) A2A): 112 ± 7%
EC50 [4, 9]: 5.4 ± 0.7 µM
% displacement at 10^−5 M A1 [5]: 36.1%

CC(C)CC=NNc1nc(N)c2ncn([C@@H]3O[C@H](CO)[C@@H](O)[C@H]3O)c2n1 [Compound 3, 2-(N′-3-Methyl-1-butylidenehydrazino)adenosine]
Ki [1, 7]: 20 ± 7 nM
Emax ([4]; CHO; read-out: Emax (%) A2A): 92 ± 2%
EC50 [4, 9]: 1.1 ± 0.2 µM
agonist behaviour, cAMP production via adenosine A2A receptor [4, 10]: full agonists
agonist behaviour, inhibition of forskolin-induced cAMP via adenosine A3 receptor ([6]; compared to reference full agonist Cl-IB-MECA): partial agonist
Emax at 3 µM ([6]; read-out: Emax (%) A3): 24%
% displacement at 10^−5 M A1 [5]: 18.9%
Ki [3]: 38.3 ± 3.3 nM

CCCCC#Cc1nc(N)c2ncn([C@@H]3O[C@H](CSC)[C@@H](O)[C@H]3O)c2n1 [Compound 37]
Ki [1, 7]: 60 ± 20 nM
EC50 [4, 9]: 0.7 ± 0.1 µM
Emax (%) A2A ([4]; compared to Emax of CGS 21680 (10 μM) in A2A CHO cells, ±SEM, n = 3; n.a. = not active, no cAMP produced at 30 μM (35) or 100 μM): 45 ± 6%

CSC[C@H]1O[C@@H](n2cnc3c(N)nc(NN=CCC(C)C)nc32)[C@H](O)[C@@H]1O [Compound 45, 5′-Deoxy-2-(N′-3-methyl-1-butylidenehydrazino)-5′-methylthioadenosine]
Ki [1, 7]: 220 ± 20 nM
Emax ([4]; CHO; read-out: Emax (%) A2A): 44 ± 4%
EC50 [4, 9]: 5 ± 0.6 µM
Emax at 30 µM ([6]; read-out: Emax (%) A3): 41%
% displacement at 10^−5 M A1 [5]: 18.9%
Ki [3]: 253 ± 36 nM

CCSC[C@H]1O[C@@H](n2cnc3c(N)nc(NN=CCC(C)C)nc32)[C@H](O)[C@@H]1O [Compound 46, 5′-Deoxy-2-(N′-3-methyl-1-butylidenehydrazino)-5′-ethylthioadenosine]
Ki [1, 7]: 500 ± 40 nM
Emax ([4]; CHO; read-out: Emax (%) A2A): 101 ± 4%
EC50 [4, 9]: 7.5 ± 0.3 µM
agonist behaviour, cAMP production via adenosine A2A receptor [4, 10]: full agonists
Emax at 100 µM ([6]; read-out: Emax (%) A3): 7%
% displacement at 10^−5 M A1 [5]: 21.2%
Ki [3]: 814 ± 132 nM

CCCSC[C@H]1O[C@@H](n2cnc3c(N)nc(NN=CCC(C)C)nc32)[C@H](O)[C@@H]1O [Compound 47, 5′-Deoxy-2-(N′-3-methyl-1-butylidenehydrazino)-5′-propylthioadenosine]
Ki [1, 7]: 1500 ± 280 nM
Emax ([4]; CHO; read-out: Emax (%) A2A): 126 ± 3%
EC50 [4, 9]: 12.9 ± 0.9 µM
agonist behaviour, cAMP production via adenosine A2A receptor [4, 10]: full agonists
Emax at 100 µM ([6]; read-out: Emax (%) A3): 16%
% displacement at 10^−5 M A1 [5]: 22.0%
Ki [3]: 697 ± 31 nM

CC(C)CC=NNc1nc(N)c2ncn([C@@H]3O[C@H](CSC(C)C)[C@@H](O)[C@H]3O)c2n1 [Compound 48, 5′-Deoxy-2-(N′-3-methyl-1-butylidenehydrazino)-5′-isopropylthioadenosine]
Ki [1, 7]: 1800 ± 230 nM
Emax ([4]; CHO; read-out: Emax (%) A2A): 56 ± 1%
EC50 [4, 9]: 10.4 ± 1 µM
Emax at 30 µM ([6]; read-out: Emax (%) A3): 26%
% displacement at 10^−5 M A1 [5]: 13.0%
Ki [3]: 409 ± 118 nM

COC[C@H]1O[C@@H](n2cnc3c(NC4CCCC4)ncnc32)[C@H](O)[C@@H]1O [Compound 67, N^6-cyclopentyl-5′-O-methyladenosine]
Ki [1, 7]: 366 ± 109 nM
% inhib. A1 of forskolin-induced cAMP [2]: 74 ± 4%

COC[C@H]1O[C@@H](n2cnc3c(NCc4cccc(I)c4)ncnc32)[C@H](O)[C@@H]1O [Compound 68, N^6-(3-iodobenzyl)-5′-O-methyladenosine]
Ki [1, 7]: 373 ± 80 nM
% inhib. A1 of forskolin-induced cAMP [2]: 53 ± 10%

COC[C@H]1O[C@@H](n2cnc3c(NC4CCCC4)nc(Cl)nc32)[C@H](O)[C@@H]1O [Compound 70, N^6-Cyclopentyl-2-chloro-5′-O-methyladenosine]
Ki [1, 7]: 1390 ± 140 nM
% inhib. A1 of forskolin-induced cAMP [2]: 73 ± 4%

COC[C@H]1O[C@@H](n2cnc3c(NCc4cccc(I)c4)nc(Cl)nc32)[C@H](O)[C@@H]1O [Compound 71, N^6-(3-iodobenzyl)-2-Chloro-5′-O-methyladenosine]
Ki [1, 7]: 527 ± 21 nM
% inhib. A1 of forskolin-induced cAMP [2]: 37 ± 15%

CCOC[C@H]1O[C@@H](n2cnc3c(NC4CCCC4)ncnc32)[C@H](O)[C@@H]1O [Compound 73, N^6-cyclopentyl-5′-O-ethyladenosine]
% displacement at 10^−5 M A2A [1, 8]: 33.9%
% inhib. A1 of forskolin-induced cAMP [2]: 69 ± 6%

CCOC[C@H]1O[C@@H](n2cnc3c(NCc4cccc(I)c4)ncnc32)[C@H](O)[C@@H]1O [Compound 74, N^6-(3-Iodobenzyl)-5′-O-Ethyladenosine]
% displacement at 10^−5 M A2A [1, 8]: 40.4%
% inhib. A1 of forskolin-induced cAMP [2]: 6 ± 21%

CCOC[C@H]1O[C@@H](n2cnc3c(NC4CCCC4)nc(Cl)nc32)[C@H](O)[C@@H]1O [Compound 76, N^6-cyclopentyl-2-Chloro-5′-O-ethyladenosine]
Ki [1, 7]: 1730 ± 700 nM
% inhib. A1 of forskolin-induced cAMP [2]: 62 ± 6%

CCOC[C@H]1O[C@@H](n2cnc3c(NCc4cccc(I)c4)nc(Cl)nc32)[C@H](O)[C@@H]1O [Compound 77, N^6-(3-iodobenzyl)-2-Chloro-5′-O-ethyladenosine]
Ki [1, 7]: 848 ± 60 nM
% inhib. A1 of forskolin-induced cAMP [2]: −72 ± 38 %

O[C@@H]1[C@H](O)[C@@H](COC2CC2)O[C@H]1n1cnc2c(NC3CCCC3)ncnc21 [Compound 79, N^6-Cyclopentyl-5′-O-cyclopropyladenosine]
% displacement at 10^−5 M A2A [1, 8]: 24.3%
% inhib. A1 of forskolin-induced cAMP [2]: 62 ± 4%

O[C@@H]1[C@H](O)[C@@H](COC2CC2)O[C@H]1n1cnc2c(NCc3cccc(I)c3)ncnc21 [Compound 80, N^6-(3-Iodobenzyl)-5′-O-cyclopropyladenosine]
% displacement at 10^−5 M A2A [1, 8]: 43.7%
% inhib. A1 of forskolin-induced cAMP [2]: −104 ± 22 %

O[C@@H]1[C@H](O)[C@@H](COC2CC2)O[C@H]1n1cnc2c(NC3CCCC3)nc(Cl)nc21 [Compound 82, N^6-cyclopentyl-2-Chloro-5′-O-cyclopropyladenosine]
% displacement at 10^−5 M A2A [1, 8]: 34.6%
% inhib. A1 of forskolin-induced cAMP [2]: 43 ± 9%

O[C@@H]1[C@H](O)[C@@H](COC2CC2)O[C@H]1n1cnc2c(NCc3cccc(I)c3)nc(Cl)nc21 [Compound 83, N^6-(3-Iodobenzyl)-2-chloro-5′-O-cyclopropyladenosine]
% displacement at 10^−5 M A2A [1, 8]: 38.7%
% inhib. A1 of forskolin-induced cAMP [2]: −118 ± 41 %

N^6-Cyclopentyl-5′-O-Cyclopropyladenosine [Compound 78]
% inhib. A1 of forskolin-induced cAMP [2]: 61 ± 2%
